Measurements as given in patent US20050014849A1, “Antifungal phenylethylene” (priority 2001, published 2005).
Converted amounts (≈) assume the structure as drawn. Where two headings read alike, the source gives them in different places.

Tests used:
[1] = system: C. neoformans ATCC 90112; experiment: Broth macrodilution MIC/MFC; format: cell-based, Cryptococcus neoformans; settings: for MFC / MIC: Cryptococcus neoformans
Protocol: (§1) TMPN was screened against yeasts by the broth macrodilution assay according to the NCCLS [7]. Yeasts were suspended and diluted as recommended to yield final inocula ranging from 0.5-2.5×10^3 cfu/ml. Tests were performed in sterile 12 by 75 mm plastic tubes containing two-fold dilutions of TMPN in 0.165 M morpholinepropanesulfonic acid buffered RPMI 1640 medium (pH 7.0). One tube was again left drug free (but contained an equivalent volume of DMSO) for a turbidity control. Tubes were incubated without agitation at the appropriate temperature (see Fungal Strains section above). MICs were determined after 72 h for Cryptococcus and after 48 h for other yeast genera. The MIC was defined as the lowest concentration of TMPN that inhibited all visible growth of the test organism (optically clear).
(§2) Minimum fungicidal concentrations (MFCs) were determined by subculturing 0.1 ml from each tube with no visible growth in the MIC broth macrodilution series onto the appropriate drug-free plates (see Fungal Strains section above).
(§3) Possible host effects were also evaluated. Broth macrodilution assays were performed with RPMI medium prepared at pH 5, pH 6, and pH 7, and in RPMI medium with and without 50% normal human serum (Lampire Biological Labs). The pH experiments were performed twice on separate days.

[2] = system: C. ater ATCC 14247; experiment: Broth macrodilution MIC/MFC; format: cell-based, Cryptococcus ater
Protocol: as §1, §2

[3] = system: C. uniguttulatus ATCC 34143; experiment: Broth macrodilution MIC/MFC; format: cell-based, Cryptococcus uniguttulatus
Protocol: as §1, §2

[4] = system: C. uniguttulatus ATCC 66033; experiment: Broth macrodilution MIC/MFC; format: cell-based, Cryptococcus uniguttulatus
Protocol: as §1, §2

[5] = system: C. albicans ATCC 90028; experiment: Broth macrodilution MIC/MFC; format: cell-based, Candida albicans; settings: for MFC: Candida albicans ATCC 90028; for MIC: Candida albicans
Protocol: as §1, §2, §3

[6] = system: C. glabrata (8); experiment: Broth macrodilution MIC/MFC; format: cell-based, Candida glabrata
Protocol: as §1, §2

[7] = system: C. glabrata ATCC 2001; experiment: Broth macrodilution MIC/MFC; format: cell-based, Candida glabrata
Protocol: as §1, §2

[8] = system: C. glabrata ATCC 90030; experiment: Broth macrodilution MIC/MFC; format: cell-based, Candida glabrata
Protocol: as §1, §2

[9] = system: C. albicans (ATCC 90028); experiment: Video-enhanced DIC microscopy of yeast/hyphal morphology; format: cell-based, Candida albicans
Text: The mechanism of action of TMPN was investigated microscopically, Candida albicans (ATCC 90028) cultures were exposed to one quarter or one half times the broth macrodilution MIC of TMPN in DMSO, or an equivalent concentration of DMSO for controls, until late-log phase. Cells were examined using an Axioscope microscope (Carl Zeiss, Thornwood, N.Y.) equipped with standard differential interference contrast (DIC) using a Plan-Neofluar 100×/1.3 (oil immersion) objective. The microscope was coupled to a C24007-07 (imaging tube camera type) video camera, via a 4×extension tube (Carl Zeiss), and an analog control unit (Hammamatsu Photonic Systems Corp., Bridgewater, N.J.). Real-time digital contrast enhancement was done with an Argus 10 Image Processor (Hammamatsu). Single frame images were digitized directly or from videotaped sequences using a Sony UP-5600MD video/digital printer (Sony Electronics, Inc., Montvale, N.J.) and prepared for printing in Photoshop 5.0 (Adobe Systems, Mountain View, Calif.). Final images were printed with a NP-1600M Medical Color Printer (Codonics, Inc., Middleburg Heights, Ohio).

[10] = system: P388 leukemia; experiment: Sulforhodamine B cancer cell growth inhibition; format: cell-based, murine; settings: Mus musculus, 48 h, read-out: GI50 (inhibition of 50% of cell growth)
Protocol: (§4) An investigation TMPN's in vitro antineoplastic activity was also conducted. This investigation included an analysis of both cell growth, and of the effects of TMPN upon tubulin. Inhibition of cancer cell growth was assessed using the Sulforhodamine B assay as previously described. Briefly, cells in 5% fetal calf serum/RPMI-1640 were inoculated into 96 well plates, incubated 24 h and 10-fold dilutions of TMPN added. After a 48 h incubation, plates were fixed with trichloroacetic acid, washed, stained with Sulforhodamine B and read with an automated microtiter plate reader.

[11] = system: murine P388 lymphocytic leukemia cell line and six human cancer cell lines; experiment: Sulforhodamine B cancer cell growth inhibition (summary over lines); format: cell-based
Protocol: as §4

[12] = ATCC90112, Cryptococcus neoformans ATCC 90112, 20 μg/ml bovine serum albumin
[13] = ATCC90112, Cryptococcus neoformans ATCC 90112, 40 μg/ml bovine serum albumin
[14] = ATCC90112, Cryptococcus neoformans ATCC 90112, no bovine serum albumin
[15] = ATCC90112, Cryptococcus neoformans ATCC 90112, no serum
[16] = ATCC90112, pH 5, Cryptococcus neoformans ATCC 90112, pH 5
[17] = ATCC90112, pH 5, Cryptococcus neoformans ATCC 90112, pH 5, repeat experiment
[18] = ATCC90112, pH 6, Cryptococcus neoformans ATCC 90112, pH 6
[19] = ATCC90112, pH 6, Cryptococcus neoformans ATCC 90112, pH 6, repeat experiment
[20] = ATCC90112, pH 7, Cryptococcus neoformans ATCC 90112, pH 7
[21] = ATCC90112, pH 7, Cryptococcus neoformans ATCC 90112, pH 7, repeat experiment

COc1cc(C=C[N+](=O)[O-])cc(OC)c1OC [TMPN, 1-(3′,4′,5′-trimethoxyphenyl)-2-nitro-ethylene]
MFC Range ([1]; C. neoformans ATCC 90112): 4 µg/mL (≈ 16.7 µM)
MIC Range ([1]; C. neoformans ATCC 90112): 2 µg/mL (≈ 8.36 µM)
MFC [1, 12]: 4 µg/mL (≈ 16.7 µM)
MIC [1, 12]: 4 µg/mL (≈ 16.7 µM)
MFC [1, 13]: 4 µg/mL (≈ 16.7 µM)
MIC [1, 13]: 4 µg/mL (≈ 16.7 µM)
MIC ([1]; ATCC90112, Cryptococcus neoformans ATCC 90112, 50% human serum): > 64 µg/mL
MFC [1, 14]: 4 µg/mL (≈ 16.7 µM)
MIC [1, 14]: 2 µg/mL (≈ 8.36 µM)
MFC [1, 15]: 4 µg/mL (≈ 16.7 µM)
MIC [1, 15]: 2 µg/mL (≈ 8.36 µM)
MFC [1, 16]: 4 µg/mL (≈ 16.7 µM)
MIC [1, 16]: 2 µg/mL (≈ 8.36 µM)
MFC [1, 17]: 2 µg/mL (≈ 8.36 µM)
MIC [1, 17]: 1 µg/mL (≈ 4.18 µM)
MFC [1, 18]: 4 µg/mL (≈ 16.7 µM)
MIC [1, 18]: 4 µg/mL (≈ 16.7 µM)
MFC [1, 19]: 4 µg/mL (≈ 16.7 µM)
MIC [1, 19]: 4 µg/mL (≈ 16.7 µM)
MFC [1, 20]: 4 µg/mL (≈ 16.7 µM)
MIC [1, 20]: 2 µg/mL (≈ 8.36 µM)
MFC [1, 21]: 4 µg/mL (≈ 16.7 µM)
MIC [1, 21]: 2 µg/mL (≈ 8.36 µM)
MFC Range [2]: 16 µg/mL (≈ 66.9 µM)
MIC Range [2]: 8 µg/mL (≈ 33.4 µM)
MFC Range [3]: 16 µg/mL (≈ 66.9 µM)
MIC Range [3]: 8 µg/mL (≈ 33.4 µM)
MFC Range [4]: 32 µg/mL (≈ 134 µM)
MIC Range [4]: 16 µg/mL (≈ 66.9 µM)
MFC ([5]; ATCC90028, no serum, read-out: MFC): 32 µg/mL (≈ 134 µM)
MFC ([5]; ATCC90028, pH 5, read-out: MFC): 32 µg/mL (≈ 134 µM)
MFC ([5]; ATCC90028, pH 6, read-out: MFC): 32 µg/mL (≈ 134 µM)
MFC ([5]; ATCC90028, pH 7, read-out: MFC): 32 µg/mL (≈ 134 µM)
MFC Range ([5]; C. albicans ATCC 90028): 32 µg/mL (≈ 134 µM)
MIC Range ([5]; C. albicans ATCC 90028): 32 µg/mL (≈ 134 µM)
MFC ([5]; 20 μg/ml bovine serum albumin): 32 (32) μg/ml
MFC ([5]; 40 μg/ml bovine serum albumin): 32 µg/mL (≈ 134 µM)
MFC ([5]; no bovine serum albumin): 32 (32) μg/ml
MFC ([5]; pH 5, repeat experiment): 32 (32), 32 (32) μg/ml
MFC ([5]; pH 6, repeat experiment): 32 (32), 32 (32) μg/ml
MFC ([5]; pH 7, repeat experiment): 32 (32), 32 (32) μg/ml
MIC ([5]; ATCC90028, Candida albicans ATCC 90028, 20 μg/ml bovine serum albumin): 32 µg/mL (≈ 134 µM)
MIC ([5]; ATCC90028, Candida albicans ATCC 90028, 40 μg/ml bovine serum albumin): 16 µg/mL (≈ 66.9 µM)
MIC ([5]; ATCC90028, Candida albicans ATCC 90028, 50% human serum): > 64 µg/mL
MIC ([5]; ATCC90028, Candida albicans ATCC 90028, no bovine serum albumin): 32 µg/mL (≈ 134 µM)
MIC ([5]; ATCC90028, Candida albicans ATCC 90028, no serum): 32 µg/mL (≈ 134 µM)
MIC ([5]; ATCC90028, pH 5, Candida albicans ATCC 90028, pH 5): 32 µg/mL (≈ 134 µM)
MIC ([5]; ATCC90028, pH 5, Candida albicans ATCC 90028, pH 5, repeat experiment): 32 µg/mL (≈ 134 µM)
MIC ([5]; ATCC90028, pH 6, Candida albicans ATCC 90028, pH 6): 32 µg/mL (≈ 134 µM)
MIC ([5]; ATCC90028, pH 6, Candida albicans ATCC 90028, pH 6, repeat experiment): 32 µg/mL (≈ 134 µM)
MIC ([5]; ATCC90028, pH 7, Candida albicans ATCC 90028, pH 7): 32 µg/mL (≈ 134 µM)
MIC ([5]; ATCC90028, pH 7, Candida albicans ATCC 90028, pH 7, repeat experiment): 32 µg/mL (≈ 134 µM)
MIC Range [6]: 8 to 32 µg/mL
MFC Range [7]: 16 µg/mL (≈ 66.9 µM)
MIC Range [7]: 8 µg/mL (≈ 33.4 µM)
MFC Range [8]: 16 µg/mL (≈ 66.9 µM)
MIC Range [8]: 4 µg/mL (≈ 16.7 µM)
cells with hyphal extensions ([9]; one half times the TMPN MIC): not observed
growth morphology observed (FIG. 4 panel b) ([9]; one half times the TMPN MIC): only yeast growth
growth rate ([9]; one half times the TMPN MIC): same rate as controls
hyphae seen ([9]; one quarter times the TMPN MIC): rarely seen
length of hyphae ([9]; one quarter times the TMPN MIC): < 20 μm
yeast/hyphae switching ([9]; sub-MIC exposure): did not exhibit yeast/hyphae switching
GI50 [10]: 4.15 µg/mL (≈ 17.3 µM)
GI50 ([11]; Mus musculus, P388, murine P388 and six human cancer cell lines, read-out: GI50 values, range over cell lines): 1 to 4 µg/mL (≈ 4.18 to 16.7 µM)
GI50 values, range over cell lines ([11]; murine P388 and six human cancer cell lines): 1.1 to 4.1 µg/mL
